Values after ≈ are worked out from the molar mass of the structure shown. Where two headings read alike, the source gives them in different places. Non-standard residues stand in square brackets, D forms with d. Residues, ends and D or L forms follow the SMILES beside them. *: point of attachment. Palmitoyl = CCCCCCCCCCCCCCCC(=O)*; Undecanoyl = CCCCCCCCCCC(=O)*
How the values were obtained:
Type in all cases: cell-based
[1] = tested on: Aspergillus niger ATCC 9642
Procedure: The antifungal activity of the lipopeptides was examined in sterile 96-well plates (Nunc F96 microtiter plates) in a final volume of 200 μL as follows: 100 µl of a suspension containing fungi at a concentration of 1×10^4 Colony-Forming Units (CFU)/ml in culture medium (RPMI 1640, 0.165 M MOPS with L-glutamine, without NaHCO3) at pH 7.4 or pH 5.5 (adjustment of the pH was done by diluted solutions of HCl and NaOH) were added to 100 μl of water containing the peptide in serial 2-fold dilutions in water. The fungi were incubated in the presence of the lipopeptides for 24-48 h at 35° C. in a Binder KB115 incubator under agitation. Growth inhibition was determined by measuring the absorbance at 620 nm with a Microplate autoreader E1309 (Bio-Tek Instruments). Antifungal activity is expressed as the minimal inhibitory concentration (MIC), the concentration at which 100% inhibition of fungi growth was observed after the incubation time mentioned above. The fungi used were: Aspergillus niger ATCC 9642, Candida albicans ATCC 10231 and Cryptococcus neoformans ATCC 66031. If not indicated otherwise, the fungi growth was detected at pH 7.4.

[2] = tested on: Aspergillus fumigatus ATCC 26430; assay: microbe, parasite or virus in culture
[3] = tested on: Aspergillus flavus ATCC 9643
[4] = tested on: B. subtilis ATCC 6051
[5] = tested on: Staphylococcus aureus ATCC 6538P
Procedure, shortened: (§1)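 Broth microdilution: bacteria at 1×10^6 CFU/ml in LB medium (pH 7.4 unless stated; pH 5.5 also tested) mixed 1:1 with 2-fold serial lipopeptide dilutions in water, 18-20 h at 37° C. Growth read at 600 nm; MIC taken as lowest concentration giving 100% growth inhibition.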

[6] = tested on: Pseudomonas aeruginosa ATCC 27853
Procedure, shortened: as §1

[7] = tested on: Acinetobacter baumannii ATCC 19606
Procedure, shortened: as §1

[8] = tested on: Escherichia coli ATCC 25922
Procedure, shortened: as §1

[9] = tested on: Candida albicans ATCC 10231; assay: microbe, parasite or virus in culture; settings: for MIC: read-out: Minimal Inhibitory Concentration, Candida Albicans (ATCC 10231)
Procedure, shortened: (§2)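 Broth microdilution in RPMI 1640/0.165 M MOPS, 1×10^4 CFU/ml inoculum, 2-fold serial lipopeptide dilutions in water, pH 7.4 unless stated (pH 5.5 alternative). Incubated 24–48 h at 35 °C with agitation; growth read at A620. MIC = lowest concentration giving 100% growth inhibition.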

[10] = tested on: Cryptococcus neoformans ATCC MYA-422; assay: microbe, parasite or virus in culture
[11] = tested on: human red blood cells (hRBC); assay: Hemolytic activity, release of hemoglobin at 540 nm
Procedure: Fresh human red blood cells (hRBC) with EDTA were rinsed 3 times with PBS (35 mM phosphate buffer/0.15 M NaCl, pH 7.3) by centrifugation for 10 min at 800 g and resuspended in PBS. Peptides dissolved in PBS were then added to 50 μl of a solution of the stock hRBC in PBS to reach a final volume of 100 μl (final erythrocyte concentration, 4% v/v). The resulting suspension was incubated under agitation for 60 min at 37° C. The samples were then centrifuged at 800×g for 10 min. Release of hemoglobin was monitored by measuring the absorbance of the supernatant at 540 nm. Controls for zero hemolysis (blank) and 100% hemolysis consisted of hRBC suspended in PBS and Triton 1%, respectively.

[12] = tested on: Enterococcus faecalis ATCC 29212; settings: Table 4; pH 7.4
Procedure, shortened: as §1

[13] = tested on: Enterobacter cloacae ATCC 49141; settings: Table 4; pH 7.4
Procedure, shortened: as §1

[14] = tested on: Cryptococcus neoformans ATCC 66031; assay: microbe, parasite or virus in culture; settings: Table 10; pH 7.4
Procedure, shortened: as §2

[15] = Table 14, lipopeptides vs parent peptides, pH 7.4
[16] = Table 8, lipopeptides vs parent peptides, pH 7.4

Structure (SMILES)	MIC ([9]; ATCC 10231, pH 7.4) [µM]	Minimal Inhibitory Concentration, Aspergillus niger (ATCC 9642) ([1]; ATCC 9642, pH 7.4) [µM]	Minimal Inhibitory Concentration, Aspergillus fumigatus (ATCC 26430) ([2]; ATCC 26430, pH 7.4) [µM]	Minimal Inhibitory Concentration, Aspergillus flavus (ATCC 9643) ([3]; ATCC 9643, pH 7.4) [µM]	Minimal Inhibitory Concentration, B. subtilis (ATCC 6051) ([4]; ATCC 6051, pH 7.4) [µM]	Minimal Inhibitory Concentration, S. aureus ATCC 6538P ([5]; ATCC 6538, pH 7.4) [µM]	Minimal Inhibitory Concentration, P. aeruginosa ATCC 27853 ([6]; ATCC 27853, pH 7.4) [µM]	Minimal Inhibitory Concentration, A. baumannii ATCC 19606 ([7]; ATCC 19606, pH 7.4) [µM]	Minimal Inhibitory Concentration, E. coli (ATCC 25922) ([8]; ATCC 25922, pH 7.4) [µM]	Minimal Inhibitory Concentration, Cryptococcus neoformans (ATCC MYA-422) ([10]; ATCC MYA-422, pH 7.4) [µM]	further results
CCCCCCCCCCC(=O)NCC(=O)N[C@H](C(=O)NCC(=O)N[C@@H](CCCCN)C(=O)N[C@@H](Cc1ccccc1)C(=O)N[C@H](CC(C)C)C(=O)N[C@@H](Cc1c[nH]cn1)C(=O)N[C@@H](CO)C(=O)N[C@@H](C)C(=O)N[C@H](CCCCN)C(=O)N[C@@H](CCCCN)C(=O)N[C@@H](Cc1c[nH]c2ccccc12)C(=O)NCC(=O)N[C@@H](CCCCN)C(=O)N[C@@H](C)C(=O)N[C@H](Cc1ccccc1)C(=O)N[C@H](C(=O)NCC(=O)N[C@H](CCC(=O)O)C(=O)N[C@H](C(=O)N[C@@H](CCSC)C(=O)N[C@@H](CC(N)=O)C(=O)N[C@@H](CO)C(N)=O)[C@@H](C)CC)C(C)C)[C@@H](C)CC [[D]4magainin-UA] (Undecanoyl-GIGKF[dL]HSA[dK]KWGKA[dF]VG[dE]IMNS-NH2)											Minimal Inhibitory Concentration, Aspergillus fumigatus (ATCC 26430) ([2]; ATCC 26430): >50 µM; % of Hemolytic activity at maximal MIC ([11]; human): 2%; Minimal Inhibitory Concentration, B. subtilis (ATCC 6051) ([4]; ATCC 6051): 6.25 µM; Minimal Inhibitory Concentration, S. aureus ATCC 6538P ([5]; ATCC 6538): 50 µM; Minimal Inhibitory Concentration, P. aeruginosa ATCC 27853 ([6]; ATCC 27853): 50 µM; Minimal Inhibitory Concentration, E. coli (ATCC 25922) ([8]; ATCC 25922): >50 µM; MIC ([9]; ATCC 10231): >50 µM; MIC ([10]; Table 17, D-magainin analog, mean of 3 experiments, standard deviation of 25%, read-out: Minimal Inhibitory Concentration, Cyrptococcus neoformans (ATCC MYA-422)): 6.25 µM (≈ 16.7 µg/mL)
CCCCCCCCCCCCCCCC(=O)N[C@@H](CCCCN)C(=O)N[C@@H](C)C(=O)N[C@@H](C)C(=O)N[C@@H](C)C(=O)N[C@@H](CCCCN)C(=O)N[C@@H](C)C(=O)N[C@@H](C)C(=O)N[C@@H](C)C(=O)N[C@@H](CCCCN)C(=O)N[C@@H](C)C(=O)N[C@@H](C)C(=O)N[C@@H](CCCCN)C(N)=O [lipopeptide 6, (CH3—(CH2)14—CO—)-Lys-Ala-Ala-Ala-Lys-Ala-Ala-Ala-Lys-Ala-Ala-Lys-NH2] (Palmitoyl-KAAAKAAAKAAK-NH2)											Minimal Inhibitory Concentration, A. fumigatus ATCC 26430 ([2]; Table 10, pH 7.4): 12.5 µM; hemolytic activity ([11]; at concentrations lower than 12 μM, human red blood cells (FIGS. 1-5)): do not exhibit significant hemolytic activity; Minimal Inhibitory Concentration, S. aureus ([5]; Table 4, pH 7.4): 50 µM; Minimal Inhibitory Concentration, P. Aeruginosa ([6]; Table 4, pH 7.4): 25 µM; Minimal Inhibitory Concentration, E. faecalis [12]: 50 µM; Minimal Inhibitory Concentration, E. cloacae [13]: 100 µM; Minimal Inhibitory Concentration, A. Baumaannii ([7]; Table 4, pH 7.4): 25 µM; Minimal Inhibitory Concentration, E. coli ([8]; Table 4, pH 7.4): 50 µM; Minimal Inhibitory Concentration, C. albicans ATCC 10231 ([9]; Table 10, pH 7.4): 3.125 µM; Minimal Inhibitory Concentration, C. neoformans ATCC 66031 [14]: 1.56 µM
NCCCC[C@@H](N)C(=O)NCC(=O)NCC(=O)NCC(=O)N[C@H](CCCCN)C(=O)NCC(=O)NCC(=O)NCC(=O)N[C@H](CCCCN)C(=O)NCC(=O)NCC(=O)N[C@H](CCCCN)C(N)=O [DK4G8, reference compound] (H-[dK]GGG[dK]GGG[dK]GG[dK]-NH2; N-terminus assumed)	>100	>100	>100	>100	>100	>100	>100	>100	>100	>100	
C[C@H](NC(=O)[C@H](C)NC(=O)[C@H](CCCCN)NC(=O)[C@@H](C)NC(=O)[C@@H](C)NC(=O)[C@H](C)NC(=O)[C@@H](N)CCCCN)C(=O)N[C@H](C)C(=O)N[C@@H](CCCCN)C(=O)N[C@H](C)C(=O)N[C@@H](C)C(=O)N[C@@H](CCCCN)C(N)=O [DK4A8, reference compound] (H-KA[dA][dA]KAA[dA]K[dA]AK-NH2; N-terminus assumed)											Minimal Inhibitory Concentration, Aspergillus niger (ATCC 9642) [1, 15]: >100 µM; Minimal Inhibitory Concentration, Aspergillus fumigatus (ATCC 26430) [2, 15]: >100 µM; Minimal Inhibitory Concentration, Aspergillus flavus (ATCC 9643) [3, 15]: >100 µM; Minimal Inhibitory Concentration, B. subtilis (ATCC 6051) [4, 16]: >100 µM; Minimal Inhibitory Concentration, S. aureus ATCC 6538P [5, 16]: >100 µM; Minimal Inhibitory Concentration, P. aeruginosa ATCC 27853 [6, 16]: >100 µM; Minimal Inhibitory Concentration, A. baumannii ATCC 19606 [7, 16]: >100 µM; Minimal Inhibitory Concentration, E. coli (ATCC 25922) [8, 16]: >100 µM; MIC [9, 15]: >100 µM; Minimal Inhibitory Concentration, Cryptococcus neoformans (ATCC MYA-422) [10, 15]: >100 µM

Now from value to compound, other results behind:

MIC ([9]; ATCC 10231, pH 7.4) [µM]	Structure (SMILES)	Minimal Inhibitory Concentration, Aspergillus niger (ATCC 9642) ([1]; ATCC 9642, pH 7.4) [µM]	Minimal Inhibitory Concentration, Aspergillus fumigatus (ATCC 26430) ([2]; ATCC 26430, pH 7.4) [µM]	Minimal Inhibitory Concentration, Aspergillus flavus (ATCC 9643) ([3]; ATCC 9643, pH 7.4) [µM]	Minimal Inhibitory Concentration, B. subtilis (ATCC 6051) ([4]; ATCC 6051, pH 7.4) [µM]	Minimal Inhibitory Concentration, S. aureus ATCC 6538P ([5]; ATCC 6538, pH 7.4) [µM]	Minimal Inhibitory Concentration, P. aeruginosa ATCC 27853 ([6]; ATCC 27853, pH 7.4) [µM]	Minimal Inhibitory Concentration, A. baumannii ATCC 19606 ([7]; ATCC 19606, pH 7.4) [µM]	Minimal Inhibitory Concentration, E. coli (ATCC 25922) ([8]; ATCC 25922, pH 7.4) [µM]	Minimal Inhibitory Concentration, Cryptococcus neoformans (ATCC MYA-422) ([10]; ATCC MYA-422, pH 7.4) [µM]	further results
3.125 (≈ 4.88 µg/mL)	CCCCCCCCCCCCCCCC(=O)N[C@@H](CCCCN)C(=O)N[C@H](C(=O)N[C@@H](C(=O)N[C@@H](C(=O)N[C@@H](CCCCN)C(=O)N[C@H](C(=O)N[C@H](C(=O)N[C@@H](C(=O)N[C@@H](CCCCN)C(=O)N[C@@H](C(=O)N[C@H](C(=O)N[C@@H](CCCCN)C(N)=O)C(C)C)C(C)C)C(C)C)C(C)C)C(C)C)C(C)C)C(C)C)C(C)C [lipopeptide 7, (CH3—(CH2)14—CO—)-Lys-Val-D-Val-D-Val-Lys-Val-Val-D-Val-Lys-D-Val-Val-Lys-NH2] (Palmitoyl-KV[dV][dV]KVV[dV]K[dV]VK-NH2)	>100	>100	>100	>100	>100	>100	>100	>100	3.125	
>100	CC(C)[C@H](NC(=O)[C@H](CCCCN)NC(=O)[C@H](NC(=O)[C@H](NC(=O)[C@@H](NC(=O)[C@@H](N)CCCCN)C(C)C)C(C)C)C(C)C)C(=O)N[C@H](C(=O)N[C@@H](C(=O)N[C@@H](CCCCN)C(=O)N[C@@H](C(=O)N[C@H](C(=O)N[C@@H](CCCCN)C(N)=O)C(C)C)C(C)C)C(C)C)C(C)C [DK4V8, reference compound] (H-KV[dV][dV]KVV[dV]K[dV]VK-NH2; N-terminus assumed)	>100	>100	>100	60	>100	>100	>100	>100	50	

— US8445636B2, “Antimicrobial and anticancer lipopeptides” (Yeda Research & Development Co. Ltd., priority 2003, dated 2013)
